For orientation: IC50 means the concentration at which inhibition is half-maximal.

The target in this experiment is T1, human MC5R (hMC5R) (Homo sapiens, UniProt P33032).
T1 construct: purchased Perkin Elmer RBXMC5M400UA
T1 sequence (P33032 whole entry): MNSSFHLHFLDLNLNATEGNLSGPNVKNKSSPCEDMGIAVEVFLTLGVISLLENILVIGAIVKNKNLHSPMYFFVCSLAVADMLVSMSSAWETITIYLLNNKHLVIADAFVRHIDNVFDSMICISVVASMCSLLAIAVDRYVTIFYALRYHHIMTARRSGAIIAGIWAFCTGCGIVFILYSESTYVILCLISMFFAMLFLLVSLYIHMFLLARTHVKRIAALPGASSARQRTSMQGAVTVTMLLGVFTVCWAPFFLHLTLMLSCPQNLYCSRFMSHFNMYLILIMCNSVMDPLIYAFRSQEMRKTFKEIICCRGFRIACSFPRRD
Description: Human MC5R radioligand binding assay (membranes, [125I] NDP-MSH displacement). The note with it: hMC5R binding; tested as trifluoroacetate or hydrochloride salts, or free bases; read-out: MC5R radioligand IC50. Summed up:
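Displacement of [125I]NDP-MSH (radioiodinated in house, HPLC-purified) from hMC5R membranes by test compound measured after 1 hr incubation at 37° C.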
As for `CN(C)C(=O)C(CN1CC[C@@H](CNC(=O)c2ccc3ccccc3c2)N[C@@H](CCCNC(=N)N)C1=O)c1ccccc1` (stereo partly drawn) [Compound 307, N-(((3S,5S)-1-(3-(dimethylamino)-3-oxo-2-phenylpropyl)-3-(3-guanidinopropyl)-2-oxo-1,4-diazepan-5-yl)methyl)-2-naphthamide], the IC50 is less than 10 µM.

Turning to `N=C(N)NCCC[C@@H]1N[C@H](CNC(=O)c2ccc3ccccc3c2)CCN(Cc2cc(F)cc(Cl)c2)C1=O` [Compound 310, N-(((3S,5S)-1-(3-chloro-5-fluorobenzyl)-3-(3-guanidinopropyl)-2-oxo-1,4-diazepan-5-yl)methyl)-2-naphthamide], the IC50 is less than 1 µM.

Consider `N=C(N)NCCC[C@@H]1N[C@H](CNC(=O)c2ccc3ccccc3c2)CCN(Cc2cc(F)cc(F)c2)C1=O` [Compound 311, N-(((3S,5S)-1-(3,5-difluorobenzyl)-3-(3-guanidinopropyl)-2-oxo-1,4-diazepan-5-yl)methyl)-2-naphthamide], for which the IC50 was less than 1 µM.

Turning to `NCCC[C@@H]1N[C@H](CNC(=O)c2ccc3ccccc3c2)CCN(Cc2cc(F)cc(Cl)c2)C1=O` [Compound 312, N-(((3S,5S)-3-(3-aminopropyl)-1-(3-chloro-5-fluorobenzyl)-2-oxo-1,4-diazepan-5-yl)methyl)-2-naphthamide], the IC50 was less than 1 µM.

Turning to `NCCC[C@@H]1N[C@H](CNC(=O)c2ccc3ccccc3c2)CCN(Cc2cc(F)cc(F)c2)C1=O` [Compound 313, N-(((3S,5S)-3-(3-aminopropyl)-1-(3,5-difluorobenzyl)-2-oxo-1,4-diazepan-5-yl)methyl)-2-naphthamide], the IC50 was less than 10 µM.

With `NCCC[C@@H]1N[C@H](CNC(=O)c2ccc3ccccc3c2)CCN(Cc2cc(Cl)ccc2Cl)C1=O` [Compound 314, N-(((3S,5S)-3-(3-aminopropyl)-1-(2,5-dichlorobenzyl)-2-oxo-1,4-diazepan-5-yl)methyl)-2-naphthamide], the IC50 is less than 10 µM.

Take `NCCC[C@@H]1N[C@H](CNC(=O)c2ccc3ccccc3c2)CCN(Cc2c(Cl)cccc2Cl)C1=O` [Compound 315, N-(((3S,5S)-3-(3-aminopropyl)-1-(2,6-dichlorobenzyl)-2-oxo-1,4-diazepan-5-yl)methyl)-2-naphthamide]: the IC50 was less than 10 µM.

In the case of `COc1cc(CN2CC[C@@H](CNC(=O)c3ccc4ccccc4c3)N[C@@H](CCCN)C2=O)cc(OC)c1` [Compound 316, N-(((3S,5S)-3-(3-aminopropyl)-1-(3,5-dimethoxybenzyl)-2-oxo-1,4-diazepan-5-yl)methyl)-2-naphthamide], the IC50 was less than 10 µM.

For `NCCC[C@@H]1N[C@H](CNC(=O)c2ccc3ccccc3c2)CCN(Cc2ccccc2Cl)C1=O` [Compound 317, N-(((3S,5S)-3-(3-aminopropyl)-1-(2-chlorobenzyl)-2-oxo-1,4-diazepan-5-yl)methyl)-2-naphthamide], the IC50 is less than 10 µM.

Turning to `NCCC[C@@H]1N[C@H](CNC(=O)c2ccc3ccccc3c2)CCN(Cc2cccc(Cl)c2Cl)C1=O` [Compound 318, N-(((3S,5S)-3-(3-aminopropyl)-1-(2,3-dichlorobenzyl)-2-oxo-1,4-diazepan-5-yl)methyl)-2-naphthamide], the IC50 is less than 10 µM.

Consider `NCCC[C@@H]1N[C@H](CNC(=O)c2ccc3ccccc3c2)CCN(Cc2ccc(Cl)cc2Cl)C1=O` [Compound 319, N-(((3S,5S)-3-(3-aminopropyl)-1-(2,4-dichlorobenzyl)-2-oxo-1,4-diazepan-5-yl)methyl)-2-naphthamide], for which the IC50 is less than 1 µM.

In the case of `NCCC[C@@H]1N[C@H](CNC(=O)c2ccc3ccccc3c2)CCN(Cc2ccc(Cl)c(Cl)c2)C1=O` [Compound 320, N-(((3S,5S)-3-(3-aminopropyl)-1-(3,4-dichlorobenzyl)-2-oxo-1,4-diazepan-5-yl)methyl)-2-naphthamide], the IC50 is less than 10 µM.

For `Cc1cc(F)cc(CN2CC[C@@H](CNC(=O)c3ccc4ccccc4c3)N[C@@H](CCCN)C2=O)c1` [Compound 321, N-(((3S,5S)-3-(3-aminopropyl)-1-(3-fluoro-5-methylbenzyl)-2-oxo-1,4-diazepan-5-yl)methyl)-2-naphthamide], the IC50 is less than 10 µM.

As to `NCCC[C@@H]1N[C@H](CNC(=O)c2ccc3ccccc3c2)CCN(Cc2cc(F)cc(C(F)(F)F)c2)C1=O` [Compound 322, N-(((3S,5S)-3-(3-aminopropyl)-1-(3-fluoro-5-(trifluoromethyl)benzyl)-2-oxo-1,4-diazepan-5-yl)methyl)-2-naphthamide], the IC50 was less than 10 µM.

For `NCCC[C@@H]1N[C@H](CNC(=O)c2ccc3ccccc3c2)CCN(Cc2ccc(Cl)cc2)C1=O` [Compound 323, N-(((3S,5S)-3-(3-aminopropyl)-1-(4-chlorobenzyl)-2-oxo-1,4-diazepan-5-yl)methyl)-2-naphthamide], the IC50 is less than 10 µM.

As to `CCC(CN1CC[C@@H](CNC(=O)c2ccc3ccccc3c2)N[C@@H](CCCN)C1=O)c1ccccc1` (stereo partly drawn) [Compound 324, N-(((3S,5S)-3-(3-aminopropyl)-2-oxo-1-(2-phenylbutyl)-1,4-diazepan-5-yl)methyl)-2-naphthamide], the IC50 was less than 1 µM.

With `NCCC[C@@H]1N[C@H](CNC(=O)c2ccc3ccccc3c2)CCN(CC2(c3ccccc3)CCCCC2)C1=O` [Compound 325, N-(((3S,5S)-3-(3-aminopropyl)-2-oxo-1-((1-phenylcyclohexyl)methyl)-1,4-diazepan-5-yl)methyl)-2-naphthamide], the IC50 was less than 1 µM.

Take `O=C(NC[C@@H]1CCN(Cc2cc(Cl)cc(Cl)c2)C(=O)[C@H](CCN2CCCCC2)N1)c1ccc2ccccc2c1` [Compound 327, N-(((3S,5S)-1-(3,5-dichlorobenzyl)-2-oxo-3-(2-(piperidin-1-yl)ethyl)-1,4-diazepan-5-yl)methyl)-2-naphthamide]: the IC50 is less than 0.1 µM.

Regarding `CCC(CC)CN1CC[C@@H](CNC(=O)/C=C/c2ccc(Cl)cc2)N[C@@H](CCN)C1=O` [Compound 330, (E)-N-(((3S,5S)-3-(2-aminoethyl)-1-(2-ethylbutyl)-2-oxo-1,4-diazepan-5-yl)methyl)-3-(4-chlorophenyl)acrylamide], the IC50 is less than 1 µM.

Consider `CCC(CC)CN1CC[C@@H](CNC(=O)c2ccc3ccccc3c2)N[C@@H](CCN2CCCCC2)C1=O` [Compound 333, N-(((3S,5S)-1-(2-ethylbutyl)-2-oxo-3-(2-(piperidin-1-yl)ethyl)-1,4-diazepan-5-yl)methyl)-2-naphthamide], for which the IC50 was less than 0.1 µM.

Regarding `O=C(NCC[C@@H]1CCN(CC(c2ccccc2)c2ccccc2)C(=O)[C@H](CCN2CCCC2)N1)c1ccc2ccccc2c1` [Compound 339, N-(2-((3S,5R)-1-(2,2-diphenylethyl)-2-oxo-3-(2-(pyrrolidin-1-yl)ethyl)-1,4-diazepan-5-yl)ethyl)-2-naphthamide], the IC50 is less than 1 µM.

Consider `NCCC[C@@H]1N[C@H](CNC(=O)c2ccc3ccccc3c2)CCN(Cc2cc(C(F)(F)F)cc(C(F)(F)F)c2)C1=O` [Compound 340, N-(((3S,5S)-3-(3-aminopropyl)-1-(3,5-bis(trifluoromethyl)benzyl)-2-oxo-1,4-diazepan-5-yl)methyl)-2-naphthamide], for which the IC50 is less than 10 µM.

Regarding `NCCC[C@@H]1N[C@H](CNC(=O)c2ccc3ccccc3c2)CCN(Cc2cccc(Cl)c2)C1=O` [Compound 341, N-(((3S,5S)-3-(3-aminopropyl)-1-(3-chlorobenzyl)-2-oxo-1,4-diazepan-5-yl)methyl)-2-naphthamide], the concentration for half-maximal inhibition (IC50) is less than 10 µM.

For the origin of these results see patent publication US8008291B2 (Mimetica Pty Ltd, priority 2008, dated 2011).
